Measurements published in PMC2077808 (2007).
Blank lines part the entries; values can stand above or below the compound they belong to.

How the values were obtained:
[1] = system: ATP-ASAP (DNA, aptamer, single rA at cleavage site in DNA substrate, flanked by fluorescein-dT and DABCYL-dT) CTTCGGAGGAGAACCATAGTCGGGGGAGAAGATGTGTCCGTGCTATGGTTCGA; experiment: fluorescence enhancement kinetics, MgZ DNAzyme cleavage sensor; conditions: 20 mM MgCl2; 50 mM HEPES pH 7.0, 0.001% Tween-20, room temperature; highest tested 1 mM
[2] = system: ADP-ASAP (DNA:RNA, aptamer, RNA aptamer with all-DNA 30-nt antisense element; single rA in DNA substrate flanked by fluorescein-dT and DABCYL-dT) GGAGACGAGGGGTCGAACCGTAGCCCGAAGGTAGGAAGAGTGCCCCGGACAAUCAGACACGGUCUCCACTCTTCCTAGCTATGGTTCGATCAAGA; experiment: as above; conditions: 20 mM MgCl2
[3] = system: ADP-ASAP (DNA:RNA, aptamer, RNA aptamer with all-DNA 30-nt antisense element; single rA in DNA substrate flanked by fluorescein-dT and DABCYL-dT) GGAGACGAGGGGTCGAACCGTAGCCCGAAGGTAGGAAGAGTGCCCCGGACAAUCAGACACGGUCUCCACTCTTCCTAGCTATGGTTCGATCAAGA; experiment: initial rate of fluorescence enhancement, MgZ DNAzyme cleavage sensor; conditions: 20 mM MgCl2, 50 mM HEPES pH 7.0, 0.001% Tween-20, room temperature, 5 nM ASAP, 1 µM MgZ
[4] = system: ATP-ASAP (DNA, aptamer, single rA at cleavage site in DNA substrate, flanked by fluorescein-dT and DABCYL-dT) CTTCGGAGGAGAACCATAGTCGGGGGAGAAGATGTGTCCGTGCTATGGTTCGA; experiment: as above; conditions: 20 mM MgCl2, 50 mM HEPES pH 7.0, 0.001% Tween-20, room temperature, 5 nM ASAP, 50 nM MgZ
[5] = 50 mM HEPES pH 7.0, 0.001% Tween-20, room temperature, highest tested 1 mM

Compound: Nc1nc2c(ncn2[C@@H]2O[C@H](COP(=O)(O)OP(=O)(O)OP(=O)(O)O)[C@@H](O)[C@H]2O)c(=O)[nH]1
binding [1]: no

Compound: Nc1ncnc2c1ncn2[C@@H]1O[C@H](CO)[C@@H](O)[C@H]1O
binding [2, 5]: no

Compound: Nc1ncnc2c1ncn2[C@@H]1O[C@H](COP(=O)(O)O)[C@@H](O)[C@H]1O
binding [2, 5]: no

Now from value to compound:

apparent K d [3]: 35 ± 3 µM
Compound: Nc1ncnc2c1ncn2[C@@H]1O[C@H](COP(=O)(O)OP(=O)(O)O)[C@@H](O)[C@H]1O

binding ([2]; 50 mM HEPES pH 7.0, room temperature, no signal at 200 µM, signal at 300-1000 µM): weak | apparent K d [4]: 456 ± 47 µM
Compound: Nc1ncnc2c1ncn2[C@@H]1O[C@H](COP(=O)(O)OP(=O)(O)OP(=O)(O)O)[C@@H](O)[C@H]1O
